Assay results as given in patent publication US20090054392A1, “NAPHTHYLPYRIMIDINE, NAPHTHYLPYRAZINE AND NAPHTHYLPYRIDAZINE ANALOGS AND THEIR USE AS AGONISTS OF THE WNT-BETA-CATENIN CELLULAR MESSAGING SYSTEM” (Wyeth, priority 2007, published 2009).
Read-outs that look alike come from different tables or passages of the source.

Test system: Dkk1-LRP5-TCF-Luciferase
Experiment: Functional Dkk1-LRP5-TCF-Luciferase Assay in U2OS Cells
Conditions: for fold induction at 2 µM: read-out: B = TCF ACTIVITY/DMSO CONTROL Fold induction @ 2.0 uM, 2.0 uM compound; for fold induction at 20 µM: read-out: C = TCF ACTIVITY/DMSO CONTROL Fold induction @ 20.0 uM, 20.0 uM compound; for A = MAX FOLD Induction/DMSO CONTROL: maximum fold induction over DMSO control
Protocol: Biological Evaluation—Functional Dkk1-LRP5-TCF-Luciferase Assay in U2OS Cells
Frozen U2OS-Dkk1-HTS Reporter cells generation: U2OS Human Bone derived cells (Osteosarcoma) are grown in McCoy's 5A Medium (Modified), with L -glutamine (GIBCO Cat No. 16600-082)+1% Pen-Strep+5% FBS) plated at 1×10^7 cells/T175 cm flask. The next day, the cells are co-transfected overnight with the following plasmids: (a) Test reporter (16×TCF-TK-FireFly-Luci), (b) Internal Control Reporter (TK-Renilla-Luci), (c) Wnt3a and (d) Dkk1. GIBCO's Lipofectamine 2000 and OptiMEM are used for the transfection. After a minimum of 4 hr of transfection at 37° C., the plasmid-transfected cells are trypsinized, counted, and suspended in freezing medium (95% FBS+5% DMSO). The reporter cells are frozen at 1×10^7/ml concentrations, aliquoted into 0.5 ml or 2.5 ml/tube and stored at 70° C.
The following day, test compounds are added under HTS setup by Plate Track into 384 well plates (white, TC treated, Falcon plate) such that the final concentration of the compounds in 20 μL/well cell will be 5 μg/ml (final concentration of DMSO=0.25% and final compound concentration=20 μM). Vials of frozen reporter cells are thawed by warming the vial in a 37° C. water bath for 60-120 seconds with some shaking until the cells formed a suspension. The thawed cells are transferred into a cold 50 ml (or larger) tube and mixed well by gentle pipetting. The appropriate amount of cold Phenol Red Free RPMI medium-1640 (GIBCO, Cat #11835-030) with L-glutamine is added, both with ˜5% FBS (GIBCO-BRL, Cat. #16000-044), so that 20 μl of the final cell suspension will contain ˜5,000 cells. The cell dilution is done such that the final concentration of FBS is ˜5%.
Diluted cells (20 μl) are added into each well in a 384 well plate. The plate is incubated at 37° C. under 5% CO2 for ˜20 h. Bright-Glo substrate, 2.5 μl/well is added, and the Fire Fly Luciferase is measured using VLUX (60 second exposure) immediately after the substrate is added. Test compounds are dissolved in DMSO (100%) and added to specified wells. Raw luciferase signal data obtained as relative luminescence units (RLUs) for the test compounds are normalized to the signal of the mean of the sample reporter cell plate with DMSO.

SMILES | fold induction at 2 µM (Homo sapiens, U2OS) | fold induction at 20 µM (Homo sapiens, U2OS) | A = MAX FOLD Induction/DMSO CONTROL [fold] | EC50 (Homo sapiens, U2OS) [µM] | EC50 [µM] | C = TCF ACTIVITY/DMSO CONTROL Fold induction @ 20.0 uM (20.0 uM compound, 20 µM) [fold]
c1ccc2cc(-c3ccnc(NCC4CNC4)n3)ccc2c1 [N-(azetidin-3-ylmethyl)-4-(2-naphthyl)pyrimidin-2-amine] | 1.46 | 1.15 | 3.140 |  |  | 
OCCC1CCN(c2nccc(-c3ccc4ccccc4c3)n2)CC1 [2-{1-[4-(2-naphthyl)pyrimidin-2-yl]piperidin-4-yl}ethanol] | 1.54 | 1.64 | 1.840 |  |  | 
O[C@H]1CCN(CC2CCN(c3nccc(-c4ccc5ccccc5c4)n3)C2)C1 (stereo partly drawn) [(3S)-1-({1-[4-(2-naphthyl)pyrimidin-2-yl]pyrrolidin-3-yl}methyl)pyrrolidin-3-ol] | 3.2 |  |  |  |  | 
O=C(N1CCOCC1)N1CC[C@@H](Nc2nccc(-c3ccc4ccccc4c3)n2)C1 [N-[(3R)-1-(morpholin-4-ylcarbonyl)pyrrolidin-3-yl]-4-(2-naphthyl)pyrimidin-2-amine] |  | 2.35 | 1.340 |  |  | 
c1cncc(CCNc2nccc(-c3ccc4ccccc4c3)n2)c1 [4-(2-naphthyl)-N-(2-pyridin-3-ylethyl)pyrimidin-2-amine] | 1.15 | 1.04 |  |  |  | 
c1ccc2cc(-c3ccnc(N4CCC(CN5CCOCC5)CC4)n3)ccc2c1 [4-({1-[4-(2-naphthyl)pyrimidin-2-yl]piperidin-4-yl}methyl)morpholine] | 0.76 | 1.96 | 2.380 | 4.98 |  | 
CN(C)C(=O)NCCC1CCN(c2nccc(-c3ccc4ccccc4c3)n2)CC1 [N,N-dimethyl-N′-(2-{1-[4-(2-naphthyl)pyrimidin-2-yl]piperidin-4-yl}ethyl)urea] | 1.48 | 0.18 |  |  |  | 
CCN(CC)C(=O)N1CCC(CNc2nccc(-c3ccc4ccccc4c3)n2)CC1 [N,N-diethyl-4-({[4-(2-naphthyl)pyrimidin-2-yl]amino}methyl)piperidine-1-carboxamide] | 1.22 | 1.04 |  |  |  | 
CN(C)[C@H]1CCN(c2nccc(-c3ccc4ccccc4c3)n2)C1 [(3S)—N,N-dimethyl-1-[4-(2-naphthyl)pyrimidin-2-yl]pyrrolidin-3-amine] |  | 0.08 | 3.390 | 3 |  | 
CCCCNc1nccc(-c2ccc3ccccc3c2)n1 [N-butyl-4-(2-naphthyl)pyrimidin-2-amine] | 1.51 |  |  |  |  | 
CN(CCN(C)[C@@H]1CCN(c2nccc(-c3ccc4ccccc4c3)n2)C1)Cc1ccccc1 [N-benzyl-N,N′-dimethyl-N′-{(3R)-1-[4-(2-naphthyl)pyrimidin-2-yl]pyrrolidin-3-yl}ethane-1,2-diamine] | 1.6 |  |  |  |  | 
OC1CCN(CC2CCN(c3nccc(-c4ccc5ccccc5c4)n3)C2)CC1 (stereo not drawn) [1-({1-[4-(2-naphthyl)pyrimidin-2-yl]pyrrolidin-3-yl}methyl)piperidin-4-ol] | 3.52 | 0.1 | 2.680 | 5.53 |  | 
CS(=O)(=O)NC1CCCN(c2nccc(-c3ccc4ccccc4c3)n2)CC1 (stereo not drawn) [N-{1-[4-(2-naphthyl)pyrimidin-2-yl]azepan-4-yl}methanesulfonamide] | 2.04 | 2.21 | 1.120 |  |  | 
NC(=O)N[C@H]1CCN(c2nccc(-c3ccc4ccccc4c3)n2)C1 [N-{(3S)-1-[4-(2-naphthyl)pyrimidin-2-yl]pyrrolidin-3-yl}urea] |  | 1.47 |  |  |  | 
CC(=O)N1CC[C@H](Nc2nccc(-c3ccc4ccccc4c3)n2)C1 [N-[(3S)-1-acetylpyrrolidin-3-yl]-4-(2-naphthyl)pyrimidin-2-amine] | 1.15 | 1.66 |  |  |  | 
CN(c1nccc(-c2ccc3ccccc3c2)n1)C1CCN(C(=N)N)CC1 [4-{methyl[4-(2-naphthyl)pyrimidin-2-yl]amino}piperidine-1-carboximidamide] | 1.74 |  |  |  |  | 
CC(=O)N1CCCN(c2nccc(-c3ccc4ccccc4c3)n2)CC1 [1-acetyl-4-[4-(2-naphthyl)pyrimidin-2-yl]-1,4-diazepane] | 1.46 | 3.21 | 1.757 | 7.3 |  | 
CN(C)C[C@@H]1CCN(c2nccc(-c3ccc4ccccc4c3)n2)C1 [N,N-dimethyl-1-{(3S)-1-[4-(2-naphthyl)pyrimidin-2-yl]pyrrolidin-3-yl}methanamine] | 2.26 | 2.26 | 3.620 |  |  | 
N[C@@H](CO)C1CCN(c2nccc(-c3ccc4ccccc4c3)n2)CC1 [(2R)-2-amino-2-{1-[4-(2-naphthyl)pyrimidin-2-yl]piperidin-4-yl}ethanol] | 2.96 |  | 1.660 |  |  | 

SMILES | fold induction at 2 µM (Homo sapiens, U2OS) | fold induction at 20 µM (Homo sapiens, U2OS) | A = MAX FOLD Induction/DMSO CONTROL [fold] | EC50 (Homo sapiens, U2OS) [µM] | EC50 [µM] | C = TCF ACTIVITY/DMSO CONTROL Fold induction @ 20.0 uM (20.0 uM compound, 20 µM) [fold]
CN(C1CCCCC1)[C@H]1CCN(c2nccc(-c3ccc4ccccc4c3)n2)C1 [(3S)—N-cyclohexyl-N-methyl-1-[4-(2-naphthyl)pyrimidin-2-yl]pyrrolidin-3-amine] | 1.22 | 0.01 |  |  |  | 
c1ccc2cc(-c3ccnc(NC[C@H]4CCNC4)n3)ccc2c1 [4-(2-naphthyl)-N-[(3S)-pyrrolidin-3-ylmethyl]pyrimidin-2-amine] |  |  | 6.810 | 3.74 |  | 
NCC1CCN(C(=O)c2nccc(-c3ccc4ccccc4c3)n2)CC1 [1-(1-{[4-(2-naphthyl)pyrimidin-2-yl]carbonyl}piperidin-4-yl)methanamine] | 0.46 | 1.42 | 1.380 |  |  | 
NC(=O)NCC1CCN(c2nccc(-c3ccc4ccccc4c3)n2)C1 (stereo not drawn) [N-({1-[4-(2-naphthyl)pyrimidin-2-yl]pyrrolidin-3-yl}methyl)urea] | 1.14 | 2.34 | 1.720 | 19.4 |  | 
NCC1CCN(c2nccc(-c3ccc4cc(-c5cccs5)ccc4c3)n2)CC1 [1-(1-{4-[6-(2-thienyl)-2-naphthyl]pyrimidin-2-yl}piperidin-4-yl)methanamine] | 1.21 | 0.03 |  |  |  | 
COC(=O)NCC1CCN(c2nccc(-c3ccc4ccccc4c3)n2)C1 (stereo not drawn) [methyl ({1-[4-(2-naphthyl)pyrimidin-2-yl]pyrrolidin-3-yl}methyl)carbamate] | 1.04 | 1.08 |  |  |  | 
COC(=O)[C@H](NC(=O)OC(C)(C)C)C1CCN(c2nccc(-c3ccc4ccccc4c3)n2)CC1 [methyl (2R)-[(tert-butoxycarbonyl)amino]{1-[4-(2-naphthyl)pyrimidin-2-yl]piperidin-4-yl}acetate] |  | 0.77 |  |  |  | 
NCCC1CCN(c2nccc(-c3ccc4ccccc4c3)n2)C1 (stereo not drawn) [2-{1-[4-(2-naphthyl)pyrimidin-2-yl]pyrrolidin-3-yl}ethanamine] | 4.23 |  | 5.940 | 0.7 |  | 
CNC[C@H]1CCN(c2nccc(-c3ccc4ccccc4c3)n2)C1 [N-methyl-1-{(3R)-1-[4-(2-naphthyl)pyrimidin-2-yl]pyrrolidin-3-yl}methanamine] | 2.76 | 0.01 | 1.030 |  |  | 
CCN(CC)C1CCN(c2nccc(-c3ccc4ccccc4c3)n2)C1 (stereo not drawn) [N,N-diethyl-1-[4-(2-naphthyl)pyrimidin-2-yl]pyrrolidin-3-amine] | 1.06 | 2.67 | 3.680 | 28.2 |  | 
CC(C)(C)OC(=O)N1CCC(Nc2nccc(-c3ccc4ccccc4c3)n2)CC1 [tert-butyl 4-{[4-(2-naphthyl)pyrimidin-2-yl]amino}piperidine-1-carboxylate] | 1 | 1.41 |  |  |  | 
N[C@H]1CCN([C@@H]2CCN(c3nccc(-c4ccc5ccccc5c4)n3)C2)C1 [(3S,3′R)-1′-[4-(2-naphthyl)pyrimidin-2-yl]-1,3′-bipyrrolidin-3-amine] | 1.2 |  |  |  |  | 
c1ccc2cc(-c3ccnc(N4CCC(CN5CCCCC5)CC4)n3)ccc2c1 [4-(2-naphthyl)-2-[4-(piperidin-1-ylmethyl)piperidin-1-yl]pyrimidine] | 1.09 | 2.8 |  | 8 | 8.59 | 1.687
OC[C@H]1CCCN1c1nccc(-c2ccc3ccccc3c2)n1 [{(2R)-1-[4-(2-naphthyl)pyrimidin-2-yl]pyrrolidin-2-yl}methanol] | 1.85 | 1.78 |  |  |  | 
CC(=O)N1CC[C@@H](Nc2nccc(-c3ccc4ccccc4c3)n2)C1 [N-[(3R)-1-acetylpyrrolidin-3-yl]-4-(2-naphthyl)pyrimidin-2-amine] | 1.21 | 2.06 | 2.980 | 14.2 |  | 
CN(C)C[C@H]1CCN(c2nccc(-c3ccc4ccccc4c3)n2)C1 [N,N-dimethyl-1-{(3R)-1-[4-(2-naphthyl)pyrimidin-2-yl]pyrrolidin-3-yl}methanamine] | 2.83 | 0.01 | 3.620 | 1.02 |  | 
O=[N+]([O-])CC1(O)CCN(c2nccc(-c3ccc4ccccc4c3)n2)CC1 [1-[4-(2-naphthyl)pyrimidin-2-yl]-4-(nitromethyl)piperidin-4-ol] | 1.19 | 1.49 |  |  |  | 
O=CN1CCCN(Cc2nccc(-c3ccc4ccccc4c3)n2)CC1 [4-{[4-(2-naphthyl)pyrimidin-2-yl]methyl}-1,4-diazepane-1-carbaldehyde] | 1.15 | 1.13 |  |  |  | 
NC(=O)NC1CCCN(c2nccc(-c3ccc4ccccc4c3)n2)CC1 (stereo not drawn) [N-{1-[4-(2-naphthyl)pyrimidin-2-yl]azepan-4-yl}urea] | 1.62 | 2.89 | 1.500 | 20.4 |  | 
